Reference: PubChem BioAssay AID1963860 (Molecular Pharmacology Branch, DTP, NCI, 2024)

System: CN0375-F725-PDC KRAS spheroid viability
Assay: Anticancer human tumor CN0375-F725-PDC patient-derived colon carcinoma cell line growth inhibition [KRAS2]
Settings: spheroids with HUVEC and MSC; for IC50: curve of first compound; for viability, T/C: stronger effect = lower value
Summary of the method: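 KRAS-mutant tumor cells were grown as spheroids with HUVEC endothelial cells and human MSCs as stroma. Targeted agents were tested alone and with KRAS pathway inhibitors. Doses started at or near clinical Cmax, or 10 microM, descending half-log.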

[1] = second compound 0.1 µM, first compound 0.0316 µM
[2] = second compound 0.1 µM, first compound 0.1 µM
[3] = second compound 0.1 µM, first compound 0.316 µM
[4] = second compound 0.1 µM, first compound 1 µM
[5] = second compound 0.316 µM, first compound 0.0316 µM
[6] = second compound 0.316 µM, first compound 0.1 µM
[7] = second compound 0.316 µM, first compound 0.316 µM
[8] = second compound 0.316 µM, first compound 1 µM
[9] = second compound 1 µM, first compound 0.0316 µM
[10] = second compound 1 µM, first compound 0.1 µM
[11] = second compound 1 µM, first compound 0.316 µM
[12] = second compound 1 µM, first compound 1 µM
[13] = second compound 3.16 µM, first compound 0.0316 µM
[14] = second compound 3.16 µM, first compound 0.1 µM
[15] = second compound 3.16 µM, first compound 0.316 µM
[16] = second compound 3.16 µM, first compound 1 µM
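Further: spheroids exposed to agents for 7 days.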

Row | SMILES | IC50 (second compound 0.1 µM) [nM] | IC50 (second compound 0.316 µM) [nM] | IC50 (second compound 1 µM) [nM] | IC50 (second compound 3.16 µM) [nM] | viability, T/C [1] [%] | viability, T/C [2] [%] | viability, T/C [3] [%] | viability, T/C [4] [%] | viability, T/C [5] [%] | viability, T/C [6] [%] | viability, T/C [7] [%] | viability, T/C [8] [%] | viability, T/C [9] [%] | viability, T/C [10] [%] | viability, T/C [11] [%] | viability, T/C [12] [%] | viability, T/C [13] [%] | viability, T/C [14] [%] | viability, T/C [15] [%] | viability, T/C [16] [%] | also measured
1 | CC1(C)CCC(CN2CCN(c3ccc(C(=O)NS(=O)(=O)c4ccc(NCC5CCOCC5)c([N+](=O)[O-])c4)c(Oc4cnc5[nH]ccc5c4)c3)CC2)=C(c2ccc(Cl)cc2)C1 + C=CC(=O)N1CCN(c2nc(OCC3CCCN3C)nc3c2CCN(c2cccc4cccc(C)c24)C3)CC1CC#N | 4630 | 2670 | 2010 | < 31.6 | 104 | 104 | 102 | 99 | 101 | 108 | 101 | 96.6 | 96.6 | 97.2 | 100 | 86.3 | 11 | 12 | 3.38 | 3.27 | IC50 (second compound 0.0316 µM): 3980 nM; viability, T/C (second compound 0.0316 µM, first compound 0.0316 µM): 108%; viability, T/C (second compound 0.0316 µM, first compound 0.1 µM): 102%; viability, T/C (second compound 0.0316 µM, first compound 0.316 µM): 101%; viability, T/C (second compound 0.0316 µM, first compound 1 µM): 107%; viability, T/C (second compound 0.0316 µM, first compound 3.16 µM): 58.5%; viability, T/C (second compound 0.0316 µM, first compound 10 µM): 15.9%; viability, T/C (second compound 0.1 µM, first compound 3.16 µM): 66.3%; viability, T/C (second compound 0.1 µM, first compound 10 µM): 17%; viability, T/C (second compound 0.316 µM, first compound 3.16 µM): 42%; viability, T/C (second compound 0.316 µM, first compound 10 µM): 14.3%; viability, T/C (second compound 1 µM, first compound 3.16 µM): 26.2%; viability, T/C (second compound 1 µM, first compound 10 µM): 5.23%; viability, T/C (second compound 3.16 µM, first compound 3.16 µM): 0.38%; viability, T/C (second compound 3.16 µM, first compound 10 µM): 0.17%
2 | CCN1CCN(Cc2ccc(Nc3ncc(F)c(-c4cc(F)c5nc(C)n(C(C)C)c5c4)n3)nc2)CC1 + CNCc1ccccc1-c1csc(C(C)Nc2nc(C)nc3cc(OC)c(OC)cc23)c1 | > 1000 | > 1000 | 32.8 | < 3.16 | 92.4 | 89.1 | 102 | 86.9 | 78.7 | 79.1 | 81.7 | 58.9 | 40.5 | 51.9 | 9.53 | 10.2 | 0.25 | 0.28 | 0.37 | 0.51 | IC50 (second compound 10 µM): < 3.16 nM; viability, T/C (second compound 0.1 µM, first compound 0.00316 µM): 102%; viability, T/C (second compound 0.1 µM, first compound 0.01 µM): 91.5%; viability, T/C (second compound 0.316 µM, first compound 0.00316 µM): 92.6%; viability, T/C (second compound 0.316 µM, first compound 0.01 µM): 88.8%; viability, T/C (second compound 1 µM, first compound 0.00316 µM): 76%; viability, T/C (second compound 1 µM, first compound 0.01 µM): 65.7%; viability, T/C (second compound 3.16 µM, first compound 0.00316 µM): 0.86%; viability, T/C (second compound 3.16 µM, first compound 0.01 µM): 0.97%; viability, T/C (second compound 10 µM, first compound 0.00316 µM): 0.33%; viability, T/C (second compound 10 µM, first compound 0.01 µM): 0.19%; viability, T/C (second compound 10 µM, first compound 0.0316 µM): 0.51%; viability, T/C (second compound 10 µM, first compound 0.1 µM): 0.3%; viability, T/C (second compound 10 µM, first compound 0.316 µM): 0.17%; viability, T/C (second compound 10 µM, first compound 1 µM): 0.4%
